Experimental data as given in patent US12076304B2, “Compositions comprising 15-HEPE and methods of treating or preventing hematologic disorders, and/or related diseases” (priority 2020, dated 2024).
“Also recorded” adds a separate entry of the source.

Assays:
Alpha-SMA mRNA = assay: UUO mice kidney quantitative RT-PCR, Alpha-SMA; type: in vivo
Protocol: Quantitative RT-PCR: Total ribonucleic acid (RNA) was extracted from kidney samples using RNAiso (Takara Bio, Japan) according to the manufacturer's instructions. One μg of RNA was reverse-transcribed using a reaction mixture containing […] (mM) of magnesium chloride (MgCl2) (F. Hoffmann-La Roche, Switzerland), 40 U RNase inhibitor (Toyobo, Japan), 0.5 mM dNTP (Promega, USA), 6.28 μM random hexamer (Promega), 5× first strand buffer (Promega), 10 mM dithiothreitol (Invitrogen, USA) and 200 U MMLV-RT (Invitrogen) in a final volume of 20 μL. The reaction was carried out for 1 hour at 37° C., followed by 5 minutes at 99° C. Real-time PCR was performed using real-time PCR DICE and TB Green™ Premix Ex Taq™ II (Takara Bio). To calculate the relative […] (mRNA) expression level, the expression of each gene (e.g., α-SMA, TIMP-1, TGF-β and Collagen Type 1) was normalized to that of reference gene 36B4 (gene symbol: Rplp0). Information regarding the PCR-primer sets and the plate layout are described in Tables 1 and 2.

[1] = tested on: cholestasis induced by BDL; assay: BDL mice: Sirius red staining of liver sections, fibrosis area; type: in vivo; conditions: for Sirius red-positive area: BDL mice liver, Day 14, mean ± SD, n = 8; for fibrosis area compared with the Vehicle group: BDL mice
Protocol: […]: To visualize collagen deposition, Bouin's fixed liver sections were stained using picro-Sirius red solution (Waldeck, Germany). For quantitative analysis of fibrosis area, bright field images of Sirius red-stained sections were captured using a digital camera (DFC295; Leica, Germany) at 100-fold magnification, and the positive areas in 5 fields/section were measured using ImageJ software (National Institute of Health, USA).

NAFLD patients [2] = assay: Phase IIa study in NAFLD patients: lipid profile and lipidomics; type: in vivo, human; conditions: for Triglycerides (median placebo-corrected % change from baseline): 2 g
Protocol: (§1) The study was planned to include 96 evaluable patients with 32 patients randomized per treatment group.
Clinical Laboratory Safety Tests: Safety tests were performed for hematology, serum biochemistry, coagulation, lipid profile, and urinalysis: Blood and urine samples were taken as per the Study Flow Chart in Table 19 for routine hematology, serum biochemistry, coagulation and urinalysis tests, along with a Lipid Profile. All samples were analyzed in the central laboratory. All subjects were fasted for a minimum of 8 hours prior to blood sampling. If subjects had not fasted for a minimum of 8 hours, the duration of fasting time was recorded, and subjects encouraged to fast appropriately for the next clinical visit. • Hematology: Full blood count to include red cell count, hemoglobin, hematocrit, white cell count, differential white cell count, platelet count and reticulocyte count. • Serum biochemistry: Urea (blood urea nitrogen; BUN), creatinine, uric acid, total bilirubin, Indirect and Direct Bilirubin, sodium, bicarbonate potassium, phosphorus, calcium chloride, alkaline phosphatase (ALP), aspartate aminotransferase (AST), alanine aminotransferase (ALT), ALT/AST ratio, lactate dehydrogenase (LDH), creatine phosphokinase (CPK), albumin, total protein, cholesterol, triglycerides, glucose, C-reactive protein (CRP). • Coagulation: prothrombin time (PT), international normalized ratio (INR) and activated partial […]. • Lipid Profile: LDL, HDL, and VLDL-C. • Urinalysis: pH, protein, glucose, blood, ketones, leukocytes, leukocyte esterase, bilirubin, specific gravity, urobilinogen and nitrate. Reflex micro if blood, protein, leukocyte esterase or nitrate/nitrite are present.
Exploratory analysis: The exploratory analysis included analysis of lipid and metabolic parameters including total cholesterol, triglycerides, very low-density lipoprotein cholesterol (VLDL-C), low density lipoprotein cholesterol (LDL-C), high density lipoprotein cholesterol (HDL-C), non-high-density lipoprotein cholesterol (non-HDL-C), remnant-like particle cholesterol (RLP-C), fasting glucose, insulin, free fatty acids and hemoglobin A1C (HbA1C). Additional exploratory analysis included high throughput lipidomics and proteomics.

NAFLD patients [3] = assay: Phase IIa study in NAFLD patients: hepatic fat by CAP; type: in vivo, human; conditions: 16 weeks
Protocol: as §1
Liver stiffness and CAP: Liver stiffness and CAP were assessed using transient elastography (e.g., FibroScan® 502 Touch model or equivalent). Patients were fasted and scanned at the same time of the day, if possible, for baseline (Week 0) and Visit 10 (Week 16). For this assessment the following conditions were met: patients were lying in dorsal decubitus position with the right arm in maximal abduction behind the head, in a similar position to that used for liver biopsy (LB); the tip of the transducer was placed on the skin between the ribs over the right lobe of the liver (the physician took the measurements with the probe placed in the intercostal space); during the FibroScan® examination the choice of M+ or XL+ probe was determined by the Automatic Probe Selection tool (APS) (If, the APS tool advises to use the “XL+probe” or “switch” continuously between “M+ and XL+ probe”, only the XL+ probe was used); and the operator, assisted by an ultrasonic time motion image, located a portion of the liver which is free of large vascular structures (the depth of measurement was between 35-75 mm for the XL+ probe and 25-65 mm for the M+ probe and the explored volume will be 3 cm^3). […] The final stiffness and CAP values was recorded as median values of valid measurements.

NAFLD patients [4] = assay: Phase IIa study in NAFLD patients: adverse events; type: in vivo, human
Text: as §1

[5] = 50 mg/kg PO QD Day 0-13, normalized to 36B4, Sham 1.00, mean ± SD

## 15-HEPE [DS102]
Alpha-SMA mRNA; [5]
  Alpha-SMA relative mRNA expression level: 3.74 ± 0.81
Alpha-SMA mRNA; 500 mg/kg PO QD Day 0-13, normalized to 36B4, Sham 1.00, mean ± SD
  Alpha-SMA relative mRNA expression level: 5.54 ± 1.54
[1]; 50 mg/kg PO QD Day 0-13
  Sirius red-positive area: 1.70 ± 0.63%
  fibrosis area compared with the Vehicle group: no significant difference
[1]; 250 mg/kg PO QD Day 0-13
  Sirius red-positive area: 1.06 ± 0.48%
  fibrosis area compared with the Vehicle group: significant decrease
[1]; 500 mg/kg PO QD Day 0-13
  Sirius red-positive area: 1.42 ± 0.60%
[1]; 500 mg/kg PO QD Day 0-13, 500 mg/kg
  fibrosis area compared with the Vehicle group: tended to decrease; also recorded: trend approaching significance
NAFLD patients [2]; Week 16, Full Analysis Set
  Triglycerides (median placebo-corrected % change from baseline): −40.2%
NAFLD patients [2]; Week 16, Subgroup: High Triglycerides (>200 mg/dL)
  Triglycerides (median placebo-corrected % change from baseline): −20.4%
NAFLD patients [2]; Week 16, Subgroup: Triglycerides > Upper Limit Normal (>150 mg/dL)
  Triglycerides (median placebo-corrected % change from baseline): −39.0%
NAFLD patients [2]; NAFLD patients, 2 g per day
  levels of multiple glycerophospholipid groups: significantly increased
  levels of multiple hepatotoxic diglycerides: significantly decreased
NAFLD patients [2]; NAFLD patients, Week 16
  triglyceride levels: lowered
NAFLD patients [2]; NAFLD patients, Week 16, safety analysis set
  lipid profile (total cholesterol, VLDL-C, non-HDL-C, RLP cholesterol, triglycerides): significantly improved
NAFLD patients [3]
  hepatic fat content as assessed by CAP: reduced
NAFLD patients [4]; 1 g (n = 32)
  Death, patients n: 0
  Patients with ≥1 AE related to study drug, %: (6.3) %
  Patients with ≥1 AE, %: (59.4) %
NAFLD patients [4]; 2 g (n = 30)
  Death, patients n: 0
  Patients with ≥1 AE related to study drug, %: (10.0) %
  Patients with ≥1 AE, %: (50.0) %
  Patients with ≥1 SAE, %: (3.3) %
NAFLD patients [4]; NAFLD patients, 1 g or 2 g per day, 16 weeks
  drug related serious adverse events (SAEs): no drug related serious adverse events
NAFLD patients [4]; NAFLD patients, 1 g or 2 g per day, 16 weeks, compared to placebo
  safety and tolerance: safe and well tolerated

## CCCCCC(O)/C=C/C=C\C/C=C\CCCCCCC(=O)O (stereo not shown) [DS109, 15-HETrE]
Alpha-SMA mRNA; 5 mg/kg PO QD Day 0-13, normalized to 36B4, Sham 1.00, mean ± SD
  Alpha-SMA relative mRNA expression level: 3.87 ± 0.82
Alpha-SMA mRNA; [5]
  Alpha-SMA relative mRNA expression level: 4.61 ± 3.15
Alpha-SMA mRNA; 250 mg/kg PO QD Day 0-13, normalized to 36B4, Sham 1.00, mean ± SD
  Alpha-SMA relative mRNA expression level: 4.85 ± 1.22
